Literature values, collected in patent US20040048805A1, “Antilipemic agents” (priority 2003, published 2004).

System: HMG-CoA reductase
Details: oral administration to rabbits; Arterioscler Thromb Vasc Biol. 1998; 18: 1304

CCC(CC)CC(=O)c1c(C(=O)OC)c(-c2ccc(OC)c(OC)c2)c2c(OC)c(OC)c(OC)cc2c1O [compound A, methyl 1-(3,4-dimethoxyphenyl)-3-(3-ethylvaleryl)-4-hydroxy-6,7,8-trimethoxy-2-naphtoate]
HMG-CoA reductase activity in the liver: increased the HMG-CoA reductase activity in the liver
